Results from patent publication EP0493782A2, “Novel dihydropyridine amides, process for their preparation and drugs containing them” (BAYER AG, priority 1991, dated 1992).

Tested on: ANP-System
Assay: Acute hypervolaemia model in the rat (volume load, urine collected over one hour)
Assay type: in vivo
Details: Ratte; for Steigerung der Na⁺-Ausscheidung: 10 mg/kg p.o. in Tylose-Suspension, acute volume load by 15 ml/kg physiological saline into the tail vein, urine collected over one hour
Description: Die ausgewählten erfindungsgemäßen Verbindungen zeigen ein nicht vorhersehbares, wertvolles pharmakologisches Wirkspektrum. Im Vergleich zu strukturähnlichen, bekannten Dihydropyridinen wie z.B. in DOS 2 228 377 beschriebenen Vertretern, zeigen die erfindungsgemäßen Verbindungen sowohl quantitativ als auch qualitativ ein anderes Wirkungsspektrum. Neben ihrer calciumantagonistischen Wirkung steigern sie die ANP-abhängige Natriurese bei Stimulation des ANP-Systems durch Volumenbelastung. Diese zusätzliche Wirkkomponente wurde in einem Modell der akuten Hypervolämie an der Ratte nachgewiesen: Die Testsubstanzen wurden oral in Tylose-Suspension verabreicht. Durch Injektion von 15 ml/kg physiologischer Kochsalzlösung in die Schwanzvene wurde eine akute Volumenbelastung ausgelöst und anschließend der Urin über eine Stunde gesammelt. Unerwarteterweise verstärken die erfindungsgemäßen Verbindungen die Natriumausscheidung. Gleichzeitig wird die Ausscheidung von cGMP, das einen spezifischen Marker für die Aktivierung des ANP-Systems darstellt, erhöht (z.B. um 100 % bei Beispiel 19).

| Compound | Steigerung der Na⁺-Ausscheidung | Ausscheidung von cGMP erhöht (oral in Tylose-Suspension, acute volume load by 15 ml/kg saline i.v., urine over one hour, dose not given) |
| --- | --- | --- |
| COC(=O)C1=C(C)NC(C)=C(C(=O)NC2CC2)C1c1ccccc1OCCCOc1ccccc1 (stereo not shown) [Beispiel 2] | 80% |  |
| COC(=O)C1=C(C)NC(C)=C(C(=O)NC2CCCC2)C1c1ccccc1OC (stereo not shown) [Beispiel 11] | 95% |  |
| COC(=O)C1=C(C)NC(C)=C(C(=O)NC2CC2)C1c1ccccc1OC(F)(F)F (stereo not shown) [Beispiel 19] | 100% | 100% |
